Literature values as cited in patent US20080227642A1, “Salts, aqueous liquid compositions containing salts of abscisic acid analogs and methods of their preparation” (priority 2007, published 2008).

Settings: room temperature

CC1=CC(=O)CC(C)(C)[C@@]1(O)/C=C/C(C)=C\C(=O)O [(S)-(+)-abscisic acid, 2-cis-,4-trans-(S)-(+)-abscisic acid]
highest concentration that can be achieved in pure water: about 3000 ppm
